This is an account of results in patent US20130116287A1 (priority 2010, published 2013).

Values joined by “and” are separate entries in the source; they are usually repeats but may differ in a detail not shown here. Equal entries are not always repeated. Where two headings read alike, the source gives them in different places.

One series concerns Phytophthora infestans. It is filed as in vivo. The settings on record: 500 ppm of active ingredient; tomato, preventive; evaluated 7 days after inoculation; 100% = no disease.
The subject of another series is Plasmopara viticola. Description: Plasmopara test (grapevines) / preventive. Type of series: in vivo. The settings on record: 100 ppm of active ingredient, evaluated 6 days after inoculation, 100% = no disease. As to the method: Plasmopara Test (Grapevines)/Preventive
Solvent: 24.5 parts by weight of acetone
24.5 parts by weight of dimethylacetamide
Emulsifier: 1 part by weight of alkylaryl polyglycol ether
To produce a suitable preparation of active compound, 1 part by weight of active compound is mixed with the stated amounts of solvent and emulsifier, and the concentrate is diluted with water to the desired concentration.
To test for preventive activity, young plants are sprayed with the preparation of active compound at the stated rate of application. After the spray coating has dried on, the plants are inoculated with an aqueous spore suspension of Plasmopara viticola and then remain for 1 day in an incubation cabinet at approximately 20° C. and a relative atmospheric humidity of 100%. The plant is subsequently placed for 4 days in a greenhouse at approximately 21° C. and a relative atmospheric humidity of approximately 90%. The plants are then misted and placed for 1 day in an incubation cabinet.
The test is evaluated 6 days after the inoculation. 0% means an efficacy which corresponds to that of the untreated control, while an efficacy of 100% means that no disease is observed.

Series [1] in a line: Measurement of logP values by HPLC on reversed phase columns (EEC directive 79/831 Annex V.A8). The settings on record: for Log P / Log P [I2] minor isomer / Log P (two values printed, isomers not assigned) / Log P [I1] main isomer: HPLC; for Log P: pH 2.7, 0.1% formic acid in water / acetonitrile, single value; for Log P (two values printed, isomers not assigned): two values without isomer tag. It is filed as physicochemical.

The mark [2] stands for this setting: pH 2.7, 0.1% formic acid, minor isomer.
The mark [3] stands for this setting: pH 2.7, 0.1% formic acid, main isomer.

As usually defined, the Log P is a log measure of how a compound divides between an organic and an aqueous phase. High values mean a more lipophilic compound, low ones a more hydrophilic compound.

In the case of `Cc1snnc1C(=NOCc1csc(NC(=O)C(C)OCC2CC2)n1)c1ccccc1` (centres unmarked) [Example 39], the efficacy in the series with Phytophthora infestans amounted to 97%; in the series with Plasmopara viticola it was 91%. Also, the “Log P” value in series [1] is listed as 3.83.

Consider `Cc1snnc1C(=NOCc1csc(NC(=O)COCC(C)C)n1)c1ccccc1` [Example 63], for which the figures for the efficacy in the series on Phytophthora infestans and with Plasmopara viticola were 100% and 75%, respectively. The “Log P” value in series [1] is on record as 4.01.

Turning to `Cc1snnc1C(=NOCc1cccc(NC(=O)CSc2ccccc2)n1)c1ccccc1` (mixture of isomers) [Example 6], the figures for the efficacy in the series on Phytophthora infestans and with Plasmopara viticola were 98% and 86%, respectively. The “Log P [I2] minor isomer” value in series [1] (setting [2]) was found to be 4.09.

In the case of `Cc1snnc1C(=NOCc1csc(NC(=O)C(C)Oc2ccccc2)n1)c1ccccc1` (centres unmarked) [Example 15], the results for the efficacy in the series with Phytophthora infestans and with Plasmopara viticola were 100% and 93%, respectively. The “Log P” value in series [1] is given as 4.04.

`Cc1snnc1C(=NOCc1csc(NC(=O)COC2CCCC2)n1)c1ccccc1` [Example 23]: the efficacy in the series with Phytophthora infestans is 95%; in the series on Plasmopara viticola it was 91%. Besides, in series [1], the “Log P” value amounted to 4.09.

On to `C=CCOC(C)C(=O)Nc1nc(CON=C(c2ccccc2)c2nnsc2C)cs1` (centres unmarked) [Example 25], for which the results for the efficacy in the series on Phytophthora infestans and in the series with Plasmopara viticola were 98% and 77%, respectively. Further, the “Log P” value in series [1] came out at 3.61.

With `Cc1snnc1C(=NOCc1csc(NC(=O)COC2CCCCC2)n1)c1ccccc1` [Example 59, 2-(cyclohexyloxy)-N-{4-[({[(5-methyl-1,2,3-thiadiazol-4-yl)(phenyl)methylene]amino}oxy)methyl]-1,3-thiazol-2-yl}acetamide], the efficacy in the series with Phytophthora infestans came out at 97%; in the series on Plasmopara viticola it was 75%. For the same compound, the chromatographic logP in series [1] (pH 2.7, HPLC, pH 2.7, 0.1% formic acid, main isomer, read-out: Log P [I1] main isomer) turned out to be 4.41; in series [1] (pH 2.7, HPLC, pH 2.7, 0.1% formic acid, minor isomer, read-out: Log P [I2] minor isomer), 4.32; in series [1] (reversed phase HPLC columns, pH 2.7, mixture of Z and E diastereoisomers, preparation example 1, read-out: logP(HCOOH)), 4.41.

Turning to `Cc1snnc1C(=NOCc1cccc(NC(=O)C(F)(F)Oc2ccccc2)n1)c1ccccc1` [Example 2], the efficacy was found to be 100% with Phytophthora infestans and 74% with Plasmopara viticola. In series [1], the “Log P” value was 4.54.

`Cc1snnc1C(=NOCc1csc(NC(=O)COc2ccc(Cl)cc2)n1)c1ccccc1` (mixture of isomers) [Example 33] registered an efficacy in the series on Phytophthora infestans of 100%. Further, the “Log P (two values printed, isomers not assigned)” value in series [1] (pH 2.7, 0.1% formic acid) turned out to be 4.09.

With `Cc1snnc1C(=NOCc1csc(NC(=O)COCc2ccccc2)n1)c1ccccc1` (mixture of isomers) [Example 28], the efficacy is 100% with Phytophthora infestans and 93% with Plasmopara viticola. Besides, in series [1] (setting [3]), the “Log P [I1] main isomer” value is listed as 3.96. Also, the “Log P [I2] minor isomer” value in series [1] (setting [2]) was 3.85.

Compound `Cc1snnc1C(=NOCc1cccc(NC(=O)C(C)OCCC(C)C)n1)c1ccccc1` (centres unmarked) [Example 50] registered an efficacy in the series on Phytophthora infestans of 97%. Moreover, the log partition coefficient (Log P) in series [1] is reported as 5.11.

For the compound `Cc1snnc1C(=NOCc1cccc(NC(=O)COCc2ccccc2)n1)c1ccccc1` [Example 30], the efficacy in the series with Phytophthora infestans stood at 95%. Further, the “Log P” value in series [1] was found to be 4.29.

On to `Cc1snnc1C(=NOCc1cccc(NC(=O)CSCCc2ccccc2)n1)c1ccccc1` [Example 52], for which, in the series on Phytophthora infestans, the efficacy is 97%. Moreover, the “Log P” value in series [1] is 4.53.

`Cc1snnc1C(=NOCc1csc(NC(=O)COCCC2CCCCC2)n1)c1ccccc1` [Example 83] registered an efficacy in the series with Phytophthora infestans of 95%. Further, in series [1], the “Log P” value was determined as 5.28.

In turn, `Cc1snnc1C(=NOCc1cccc(NC(=O)C(C)SCc2ccccc2)n1)c1ccccc1` (centres unmarked) [Example 99] returned an efficacy in the series on Phytophthora infestans of 100%. Besides, in series [1], the “Log P” value amounted to 4.58.

For `CC(=O)OC(C)(C)C(=O)Nc1cccc(CON=C(c2ccccc2)c2nnsc2C)n1` (mixture of isomers) [Example 101], in the series on Phytophthora infestans, the efficacy amounted to 95%. Moreover, the “Log P [I1] main isomer” value in series [1] (setting [3]) is 3.48. Also, the “Log P [I2] minor isomer” value in series [1] (setting [2]) is given as 3.35.

Take `Cc1snnc1C(=NOCc1cccc(NC(=O)C(C)(C)Oc2ccccc2)n1)c1ccccc1` [Example 103]: in the series on Phytophthora infestans, the efficacy was determined as 100%. The “Log P” value in series [1] stood at 4.93.

Compound `C=CCOC(C)C(=O)Nc1cccc(CON=C(c2ccccc2)c2nnsc2C)n1` (centres unmarked) [Example 26] showed an efficacy in the series with Phytophthora infestans of 95%. The “Log P” value in series [1] is 3.94.

`C#CCOCC(=O)Nc1cccc(CON=C(c2ccccc2)c2nnsc2C)n1` [Example 48] registered an efficacy in the series on Phytophthora infestans of 100%. Further, the “Log P” value in series [1] is 3.29.

For `Cc1snnc1C(=NOCc1csc(NC(=O)C(C)OCCC(C)C)n1)c1ccccc1` (centres unmarked) [Example 49], in the series with Phytophthora infestans, the efficacy stood at 98%. Also, the “Log P” value in series [1] was determined as 4.68.

Regarding `Cc1snnc1C(=NOCc1cccc(NC(=O)COCC(C)C)n1)c1ccccc1` [Example 64], in the series on Phytophthora infestans, the efficacy was 98%. Further, the “Log P” value in series [1] turned out to be 4.44.

Regarding `Cc1snnc1C(=NOCc1csc(NC(=O)COc2cccc(Cl)c2)n1)c1ccccc1` (mixture of isomers) [Example 41], the efficacy in the series with Phytophthora infestans turned out to be 100%. The “Log P (two values printed, isomers not assigned)” value in series [1] (pH 2.7, 0.1% formic acid) was 4.24 and 4.11.

`Cc1snnc1C(=NOCc1csc(NC(=O)C(C)SCc2ccccc2)n1)c1ccccc1` (centres unmarked) [Example 98] had an efficacy in the series with Phytophthora infestans of 98%. Moreover, the “Log P” value in series [1] is reported as 4.26.

In the case of `CC(=O)OC(C)(C)C(=O)Nc1nc(CON=C(c2ccccc2)c2nnsc2C)cs1` (mixture of isomers) [Example 100], the efficacy with Phytophthora infestans is 95%. Also, the “Log P [I1] main isomer” value in series [1] (setting [3]) came out at 3.35. The “Log P [I2] minor isomer” value in series [1] (setting [2]) amounted to 3.25.

On to `Cc1snnc1C(=NOCc1cccc(NC(=O)COc2ccc(Cl)cc2)n1)c1ccccc1` (mixture of isomers) [Example 35], for which, in the series on Phytophthora infestans, the efficacy was 95%. Besides, in series [1] (setting [3]), the “Log P [I1] main isomer” value is on record as 4.51.

In the series with Phytophthora infestans, `CC(=NOCC(=O)Nc1cccc(CON=C(c2ccccc2)c2nnsc2C)n1)c1ccccc1` [Example 112] displayed an efficacy of 95%. In addition, in series [1], the “Log P” value worked out at 4.51.

Turning to `Cc1snnc1C(=NOCc1csc(NC(=O)C(C)Oc2ccc(F)cc2)n1)c1ccccc1` (centres unmarked) [Example 95], the efficacy in the series with Phytophthora infestans is listed as 100%. Besides, the “Log P” value in series [1] is given as 4.06.

`C=CCCOCC(=O)Nc1cccc(CON=C(c2ccccc2)c2nnsc2C)n1` [Example 38] displayed an efficacy in the series with Phytophthora infestans of 100%. Also, the “Log P” value in series [1] is 3.99.

`Cc1snnc1C(=NOCc1cccc(NC(=O)COCc2ccccc2)n1)c1ccccc1` (mixture of isomers) [Example 29] yielded an efficacy in the series on Phytophthora infestans of 93%. Further, the “Log P [I1] main isomer” value in series [1] (setting [3]) stood at 4.34.

`Cc1snnc1C(=NOCc1csc(NC(=O)C(C)OCC2CCCC2)n1)c1ccccc1` (centres unmarked) [Example 75] returned an efficacy with Phytophthora infestans of 100%. In addition, in series [1], the “Log P” value is on record as 4.9.

For the compound `CCOC(C)(C)C(=O)Nc1cccc(CON=C(c2ccccc2)c2nnsc2C)n1` [Example 62], the efficacy in the series on Phytophthora infestans was found to be 95%. Moreover, in series [1], the “Log P” value was found to be 4.34.

As to `Cc1snnc1C(=NOCc1cccc(NC(=O)COc2ccccc2Cl)n1)c1ccccc1` (mixture of isomers) [Example 32], the efficacy in the series with Phytophthora infestans worked out at 93%. Also, the “Log P [I1] main isomer” value in series [1] (setting [3]) is on record as 4.61. For the same compound, in series [1] (setting [2]), the “Log P [I2] minor isomer” value is listed as 4.49.

For the compound `Cc1snnc1C(=NOCc1csc(NC(=O)COCC2CCCCO2)n1)c1ccccc1` (centres unmarked) [Example 71], the efficacy with Phytophthora infestans was determined as 90%. In addition, in series [1], the “Log P” value is recorded as 3.76.

In the series with Phytophthora infestans, `C#CCOC(CC)C(=O)Nc1cccc(CON=C(c2ccccc2)c2nnsc2C)n1` (centres unmarked) [Example 105] displayed an efficacy of 95%. In addition, the “Log P” value in series [1] was 3.9.

In the series with Phytophthora infestans, `Cc1snnc1C(=NOCc1cccc(NC(=O)COCC2CC2)n1)c1ccccc1` [Example 18] gave an efficacy of 100%. The “Log P” value in series [1] came out at 3.92.

In turn, `C=CCCOC(C)C(=O)Nc1cccc(CON=C(c2ccccc2)c2nnsc2C)n1` (centres unmarked) [Example 20] showed an efficacy with Phytophthora infestans of 95%. Moreover, the “Log P” value in series [1] is on record as 4.36.

The compound `C=CCCOCC(=O)Nc1nc(CON=C(c2ccccc2)c2nnsc2C)cs1` [Example 37] yielded an efficacy with Phytophthora infestans of 98%. Also, the “Log P” value in series [1] was 3.68.

Take `Cc1snnc1C(=NOCc1cccc(NC(=O)C(C)Oc2ccccc2)n1)c1ccccc1` (centres unmarked) [Example 16]: the efficacy with Phytophthora infestans came out at 100%. Also, the “Log P” value in series [1] is listed as 4.41.

With `Cc1snnc1C(=NOCc1cccc(NC(=O)C(C)OCC2CCCCC2)n1)c1ccccc1` (centres unmarked) [Example 74], the efficacy with Phytophthora infestans is given as 94%. For the same compound, the “Log P” value in series [1] is 5.87.

Regarding `Cc1snnc1C(=NOCc1csc(NC(=O)C(C)OCC(C)C)n1)c1ccccc1` (centres unmarked) [Example 85], the efficacy is recorded as 95% in the series on Phytophthora infestans and 73% with Plasmopara viticola.

In the series with Phytophthora infestans, `CCCCOCC(=O)Nc1nc(CON=C(c2ccccc2)c2nnsc2C)cs1` [Example 21] gave an efficacy of 93%. For the same compound, the “Log P” value in series [1] was 3.99.

Regarding `Cc1snnc1C(=NOCc1csc(NC(=O)COc2cccc(Cl)c2)n1)c1ccccc1` [Example 42], the efficacy with Phytophthora infestans was found to be 100%. The “Log P” value in series [1] worked out at 4.19.

Consider `C#CCOCC(=O)Nc1nc(CON=C(c2ccccc2)c2nnsc2C)cs1` [Example 47], for which the efficacy in the series on Phytophthora infestans worked out at 95%. Moreover, the “Log P” value in series [1] is reported as 3.04.
